According to patent EP1388013B1, “COMPOSITIONS AND METHODS FOR THE USE OF FIBRONECTIN FRAGMENTS IN THE DIAGNOSIS OF CANCER” (THE REGENTS OF THE UNIVERSITY OF MICHIGAN, priority 2001, dated 2002):
No end group written: not given here.

How the values were obtained:
[1] = system: normal human mammary epithelial cells; assay: SU-ECM invasion assay, normal mammary epithelial cells; assay type: cell-based; details: SU-ECM, serum containing environment; Figure 12
Description: (§1) Adult Strongylocentrotus purpuratus sea urchins were obtained from Pacific BioMarine, and their embryos were cultured to the early pluteus stage in artificial sea water at 15°C. SU-ECM were prepared from them by treatment with nonionic detergent and sterilized by dilution in the appropriate media.
(§2) […] When appropriate, purified bovine plasma fibronectin (Sigma, St. Louis, Mo), purified 120 kDa chymotryptic fragment (Gibco BRL), PHSRN or PHSCN peptides (synthesized at the Biomedical Research Core Facilities of the University of Michigan), or GRGDSP or GRGESP peptides (Gibco BRL) were added to the resuspended cells prior to placement of the cells on SU-ECM. In each well of a plate used for an invasion assay, SU-ECM were placed in 0.5 ml of the appropriate medium, and 0.5ml of the resuspended cells dropped on their exterior surfaces. Invasion assays were incubated 1 to 16 hours prior to scoring. If some circumstances, invasion assays were fixed in phosphate-buffered saline (PBS) with 2% formaldehyde for 5 minutes at room temperature, then rinsed into PBS.
(§3) Invasion assays were coded and scored blindly by microscopic examination under phase contrast at 200- and 400-fold magnification. Each cell contacting an SU-ECM was scored for its position relative to the exterior or interior surfaces. A cell was judged to have invaded if it was located on an interior surface below the focal plane passing through the upper surface of the SU-ECM, but above the focal plane passing through its lower surface. The minimum viability of the cells in each assay was always ascertained at the time of assay by determining the fraction of spread, adherent cells on the bottom of each well scored.
(§4) An invasion frequency is defined as the fraction of cells in contact with basement membranes which were located in their interiors at the time of assay. […] Invasion frequencies were determined multiple times for each cell type assayed. For each type of cell assayed the mean and standard deviation of the invasion frequencies were calculated. […]

[2] = system: metastatic DU-145 prostate cancer cells; assay: SU-ECM invasion assay, DU-145 cells; assay type: cell-based, human; details: PHSRN sequence of fibronectin alone; Example 4
Description: as §1, §2, §3
An invasion frequency is defined as the fraction of cells in contact with basement membranes which were located in their interiors at the time of assay. Thus, an invasion frequency of 1 denotes invasion by 100% of the cells in contact with basement membranes. Invasion frequencies were determined multiple times for each cell type assayed. For each type of cell assayed the mean and standard deviation of the invasion frequencies were calculated.
The method of Example 4 is employed, with the addition of varying concentrations of the PHSCN peptide.
Thus, the procedure in Example 4 provides a method for determining the inhibitory potential of the PHSCN peptide by comparing the number of cell invasions in the presence of the PHSCN peptide, with the number of cell invasions in the absence of the PHSCN peptide.
In this example, in vitro invasion of cancer cells into substrates is inhibited with peptides that have been chemically modified with protecting groups and peptides having protecting groups as well as the modification wherein an L-amino acid has been replaced with the D-isomer. PHSCN peptide, blocked PHSCN peptide, and blocked PHSCN peptide with a D-cysteine instead of the L-isomer, were tested (Figure 4A, 4B).
In this example, in vitro invasion of cancer cells into substrates is inhibited with non-peptide mimetics in comparison with chemically modified peptides (on a molar basis). The peptides of Example 10 (i.e. peptides chemically modified with protecting groups and peptides having protecting groups as well as the modification wherein an L-amino acid has been replaced with the D-isomer) were compared with the non-peptide mimetics DL-N-Acetylhomocysteinethiolactone, Thiobutyrolactone, and Mercaptopropionic acid, in order to investigate the structure activity relationship for invasion inhibition by interaction with the PHSRN-binding pocket of the α5β1 fibronectin receptor (Figure 7)

[3] = system: normal human prostate epithelial cells; assay: SU-ECM invasion assay, normal prostate epithelial cells; assay type: cell-based; details: SU-ECM, serum containing environment; Figure 12
Description: as §1, §2, §3, §4

[4] = system: Normal neonatal keratinocytes; assay: SU-ECM invasion assay, keratinocytes; assay type: cell-based; details: in the presence of serum, Figure 11
Excerpt: In one example cells for the invasion assay are harvested by rinsing in Hanks' balanced salt solution, followed by brief treatment with 0.25% trypsin, 0.02% EDTA, and pelleting and resuspension in the appropriate medium with or without 5% FCS at a density of about 50,000 cells per ml. When appropriate, purified bovine plasma fibronectin (from Sigma, St. Louis, Mo), purified 120 kDa chymotryptic fragment (Gibco BRL) or PHSRN peptides (synthesized at the Biomedical Research Core Facilities of the University of Michigan) are added to the resuspended cells prior to placement of the cells on SU-ECM. […]
Invasion assays are coded and scored blindly by microscopic examination under phase contrast at 200- and 400-fold magnification. Each cell contacting an SU-ECM is scored for its position relative to the exterior or interior surfaces. […] The minimum viability of the cells in each assay is always ascertained at the time of assay by determining the fraction of spread, adherent cells on the bottom of each well scored.
as §4, with “membranes which are located in” for “membranes which were located in”, “Invasion frequencies are determined multiple” for “Invasion frequencies were determined multiple”

PHSRN [PHSRN]
induction of invasive behavior of human mammary epithelial cells [1]: induces the invasive behaviors
induction of DU-145 cell invasion of SU-ECM [2]: induced to invade
induction of invasive behavior of human prostate epithelial cells [3]: induces the invasive behaviors
maximal invasion percentages for keratinocytes [4]: about 20%
